Assay results reported in ChEMBL document CHEMBL4480398, “1,2,4-Triazolo[1,5-a]pyrimidines in drug design” (Eur J Med Chem, 2019).
Values after ≈ are worked out from the molar mass of the structure shown.

Experiments:
Format in all cases: functional
[1] = test system: Mycobacterium tuberculosis; assay: Antibacterial activity against extensively drug resistant Mycobacterium tuberculosis X24 after 9 days by inverted microscopic analysis; details: X24, 216 h
[2] = test system: Mycobacterium tuberculosis; assay: Antibacterial activity against extensively drug resistant Mycobacterium tuberculosis X59 after 9 days by inverted microscopic analysis; details: X59, 216 h
[3] = test system: Mycobacterium tuberculosis; assay: Antibacterial activity against multidrug-resistant Mycobacterium tuberculosis M23 after 9 days by inverted microscopic analysis; details: M23, 216 h
[4] = test system: Mycobacterium tuberculosis; assay: Antibacterial activity against multidrug-resistant Mycobacterium tuberculosis M22 after 9 days by inverted microscopic analysis; details: M22, 216 h
[5] = test system: Mycobacterium tuberculosis; assay: Antibacterial activity against multidrug-resistant Mycobacterium tuberculosis P887 after 9 days by inverted microscopic analysis; details: P887, 216 h

For `Cc1nc2nc(S(=O)(=O)Nc3c(Br)ccc4cccnc34)nn2c2c1CCC2`, the MIC [1] was 2 µM (≈ 0.919 µg/mL), the MIC [2] was 2 µM (≈ 0.919 µg/mL) and the MIC [3] was 2 µM (≈ 0.919 µg/mL). It also gave an MIC [4] of 2 µM (≈ 0.919 µg/mL) and an MIC [5] of 2 µM (≈ 0.919 µg/mL).

With `Cc1ccn2nc(S(=O)(=O)Nc3c(Br)ccc4cccnc34)nc2n1` the MIC [1] was 0.5 µM (≈ 0.21 µg/mL), the MIC [2] was 0.5 µM (≈ 0.21 µg/mL) and the MIC [3] was 0.5 µM (≈ 0.21 µg/mL). For the same compound, the MIC [4] was 0.5 µM (≈ 0.21 µg/mL) and the MIC [5] was 0.5 µM (≈ 0.21 µg/mL).
